Reference: a compilation of properties of binary mixtures (doi:10.1016/j.jct.2020.106150)

Experiment: xn = mol fraction of the nth substance listed
Details: 100 kPa

CCCC[P+](C)(CCCC)CCCC.COS(=O)(=O)[O-] + O=Cc1ccco1
x1 = 1
Details | speed of sound [m/s] | viscosity [mPa·s]
293.15 K | 1563.7 | 730
298.15 K | 1546.1 | 520
303.15 K | 1529.7 | 380
308.15 K | 1514.3 | 290
313.15 K | 1499.2 | 217
318.15 K | 1485.7 | 169
323.15 K | 1472.1 | 133

O=Cc1ccco1 + CCCC[P+](C)(CCCC)CCCC.COS(=O)(=O)[O-]
Details | speed of sound [m/s] | viscosity [mPa·s]
293.15 K, x2 = 0 | 1459.1 | 1.62
293.15 K, x2 = 0.062 | 1482.3 | 2.5
293.15 K, x2 = 0.142 | 1505.9 | 21.3
293.15 K, x2 = 0.249 | 1527 | 65
293.15 K, x2 = 0.317 | 1541.2 | 95
293.15 K, x2 = 0.399 | 1556.3 | 134
293.15 K, x2 = 0.499 | 1563.9 | 190
293.15 K, x2 = 0.732 | 1568.5 | 400
293.15 K, x2 = 0.823 | 1566.1 | 500
293.15 K, x2 = 0.863 | 1565.4 | 560
293.15 K, x2 = 0.91 | 1563.4 | 610
293.15 K, x2 = 0.951 | 1563.1 | 660
298.15 K, x2 = 0 | 1440.2 | 1.48
298.15 K, x2 = 0.142 | 1489.6 | 10.1
298.15 K, x2 = 0.191 | 1499.2 | 17.1
298.15 K, x2 = 0.249 | 1511.1 | 31
298.15 K, x2 = 0.317 | 1525.5 | 47
298.15 K, x2 = 0.399 | 1540.4 | 72
298.15 K, x2 = 0.499 | 1548.6 | 101
298.15 K, x2 = 0.624 | 1555.2 | 160
298.15 K, x2 = 0.732 | 1552.5 | 270
298.15 K, x2 = 0.823 | 1550.2 | 350
298.15 K, x2 = 0.863 | 1549.3 | 390
298.15 K, x2 = 0.91 | 1547.2 | 440
298.15 K, x2 = 0.951 | 1546.2 | 480
303.15 K, x2 = 0 | 1422 | 1.36
303.15 K, x2 = 0.062 | 1454.5 | 2.14
303.15 K, x2 = 0.1 | 1463 | 3.1
303.15 K, x2 = 0.142 | 1472.1 | 4.1
303.15 K, x2 = 0.249 | 1493.1 | 8.7
303.15 K, x2 = 0.317 | 1508.5 | 25
303.15 K, x2 = 0.399 | 1524.3 | 40
303.15 K, x2 = 0.499 | 1534.6 | 55
303.15 K, x2 = 0.624 | 1539.8 | 93
303.15 K, x2 = 0.823 | 1533.5 | 260
303.15 K, x2 = 0.863 | 1532.5 | 290
303.15 K, x2 = 0.91 | 1531.2 | 320
303.15 K, x2 = 0.951 | 1530.1 | 350
308.15 K, x2 = 0 | 1403.8 | 1.26
308.15 K, x2 = 0.062 | 1434 | 1.99
308.15 K, x2 = 0.1 | 1443.5 | 3
308.15 K, x2 = 0.191 | 1466.5 | 5.6
308.15 K, x2 = 0.249 | 1476.3 | 7.7
308.15 K, x2 = 0.399 | 1508.3 | 20.4
308.15 K, x2 = 0.499 | 1515.9 | 34
308.15 K, x2 = 0.732 | 1521.5 | 133
308.15 K, x2 = 0.823 | 1519.8 | 194
308.15 K, x2 = 0.863 | 1517.1 | 217
308.15 K, x2 = 0.91 | 1516.5 | 241
308.15 K, x2 = 0.951 | 1515.5 | 270
313.15 K, x2 = 0.062 | 1418.8 | 1.76
313.15 K, x2 = 0.142 | 1438.3 | 3.6
313.15 K, x2 = 0.191 | 1449 | 5.6
313.15 K, x2 = 0.249 | 1459.5 | 6.7
313.15 K, x2 = 0.317 | 1475.5 | 8.8
313.15 K, x2 = 0.399 | 1492.4 | 11.5
313.15 K, x2 = 0.499 | 1501.5 | 17.9
313.15 K, x2 = 0.624 | 1509.5 | 43
313.15 K, x2 = 0.732 | 1505.7 | 101
313.15 K, x2 = 0.823 | 1504.6 | 146
313.15 K, x2 = 0.863 | 1502.3 | 165
313.15 K, x2 = 0.91 | 1500.7 | 185
313.15 K, x2 = 0.951 | 1500.5 | 201
318.15 K, x2 = 0 | 1367.8 | 1.09
318.15 K, x2 = 0.1 | 1410.1 | 2.5
318.15 K, x2 = 0.191 | 1431.3 | 4.3
318.15 K, x2 = 0.317 | 1457.6 | 7
318.15 K, x2 = 0.399 | 1476.4 | 9.9
318.15 K, x2 = 0.624 | 1494.6 | 32
318.15 K, x2 = 0.732 | 1493.4 | 81
318.15 K, x2 = 0.823 | 1489.6 | 116
318.15 K, x2 = 0.863 | 1488.6 | 130
318.15 K, x2 = 0.91 | 1488.2 | 144
318.15 K, x2 = 0.951 | 1486.5 | 158
323.15 K, x2 = 0 | 1349.9 | 1.02
323.15 K, x2 = 0.062 | 1386 | 1.53
323.15 K, x2 = 0.1 | 1394.5 | 2.3
323.15 K, x2 = 0.142 | 1402.1 | 3.3
323.15 K, x2 = 0.317 | 1443.6 | 6
323.15 K, x2 = 0.399 | 1460.6 | 8.6
323.15 K, x2 = 0.499 | 1469.8 | 18.6
323.15 K, x2 = 0.624 | 1479.9 | 27
323.15 K, x2 = 0.732 | 1479.9 | 73
323.15 K, x2 = 0.823 | 1478.2 | 99
323.15 K, x2 = 0.863 | 1477.2 | 110
323.15 K, x2 = 0.91 | 1476.1 | 117
323.15 K, x2 = 0.951 | 1474.6 | 126
